Reference: publication PMC10322702 (Nature Chemistry, 2023)
Numbered stars: 1 amine (or outer) side, 2 acyl side, 3 side chain; on linkers, the order of the positions; unused ones are H or OH. Bridge positions count the residues as written; N and C are the ends. Square brackets hold non-standard residues; d marks the D form. Peptide text beside a SMILES is read from it. Acbc(cis-1,3) = O=C([C@H]1C[C@@H](N[*:1])C1)[*:2]; X1 = O=C([C@@H]1CC[C@H](N[*:1])C1)[*:2]

Columns and labels:
[1] = target: T1, SARS-CoV-2 M^pro (Severe acute respiratory syndrome coronavirus 2, UniProt P0DTD1); experiment: biochemical; assay type: binding; details: for kon: read-out: ka (kinetic association)
[2] = target: T1, SARS-CoV-2 M^pro; experiment: biochemical; assay type: biochemical

Compound | Kd [1] | kd (kinetic dissociation) [1] | kon [1] | IC50 [2] | fold less active than GM4 (M^pro inhibition) [2] | inhibition at 16.6 µM [2] | inhibition at 50.1 µM [2] | inhibition at 5.5 µM [2] | inhibition of M^pro (in words) [2] | inhibition at 25.1 µM [2]
CC(C)C[C@@H]1NC(=O)[C@H](CC(N)=O)NC(=O)[C@H](CC(C)C)NC(=O)[C@H](CC(N)=O)NC(=O)[C@H](Cc2c[nH]cn2)NC(=O)[C@H](Cc2ccccc2)NC(=O)[C@@H](Cc2ccc(O)cc2)NC(=O)CSC[C@H](C(N)=O)NC(=O)CNC(=O)[C@@H]2CCCN2C(=O)[C@H](CCCNC(=N)N)NC(=O)[C@H](Cc2ccc(O)cc2)NC(=O)CNC1=O [GM4γ^14N] ({CH2CO}-[dY]FHNLNLGYRPG[dC]-NH2; thioether N-13) | 480 nM | 9.5 10^-3 s^-1 | 20000 M⁻¹ s⁻¹ | 1000 nM | 20 fold | 100% | 100% |  |  | 
CC[C@H](C)[C@@H]1NC(=O)[C@H](Cc2ccccc2)NC(=O)[C@@H](Cc2ccc(O)cc2)NC(=O)CSC[C@H](C(N)=O)NC(=O)[C@H]([C@@H](C)CC)NC(=O)[C@@H]2CCCN2C(=O)[C@H](CC(C)C)NC(=O)[C@H]2C[C@H](C2)NC(=O)[C@H](Cc2c[nH]cn2)NC(=O)[C@@H]2CCCN2C(=O)[C@H](CC(=O)O)NC(=O)[C@H](Cc2c[nH]cn2)NC(=O)[C@H](Cc2ccccc2)NC(=O)[C@H]([C@@H](C)CC)NC(=O)[C@H]([C@@H](C)O)NC(=O)[C@H](Cc2c[nH]cn2)NC1=O [GM6] ({CH2CO}-[dY]FIHTIFHDPH[Acbc(cis-1,3)]LPI[dC]-NH2; thioether N-16) | 82 nM | 6.4 10^-3 s^-1 | 78000 M⁻¹ s⁻¹ | 2280 nM |  | 100% | 100% | 90.2% |  | 
CC(C)C[C@@H]1NC(=O)[C@H](CC(N)=O)NC(=O)[C@H](CC(C)C)NC(=O)[C@H]2C[C@H](C2)NC(=O)[C@H](CCC(=O)O)NC(=O)[C@H](Cc2ccccc2)NC(=O)[C@@H](Cc2ccc(O)cc2)NC(=O)CSC[C@H](C(N)=O)NC(=O)CNC(=O)[C@@H]2CCCN2C(=O)[C@H](CCCNC(=N)N)NC(=O)[C@H](Cc2ccc(O)cc2)NC(=O)CNC1=O [GM4H3E] ({CH2CO}-[dY]FE[Acbc(cis-1,3)]LNLGYRPG[dC]-NH2; thioether N-13) | 360 nM | 7.1 10^-3 s^-1 | 20000 M⁻¹ s⁻¹ | > 25000 nM |  |  |  |  | observed only with the highest tested concentration (25 µM) | 
CC[C@H](C)[C@@H]1NC(=O)[C@H](Cc2ccc(O)cc2)NC(=O)[C@H]([C@@H](C)O)NC(=O)[C@H](C)NC(=O)[C@@H]2CC[C@@H](C2)NC(=O)[C@H](CO)NC(=O)[C@H]([C@@H](C)O)NC(=O)[C@H](Cc2ccc(O)cc2)NC(=O)[C@H](Cc2ccccc2)NC(=O)[C@H](Cc2c[nH]cn2)NC(=O)[C@H](CC(C)C)NC(=O)[C@@H](Cc2ccc(O)cc2)NC(=O)CSC[C@H](C(N)=O)NC(=O)[C@@H]2CCCN2C(=O)[C@H](Cc2ccc(O)cc2)NC1=O [GM7, ^AcyLHFYTSγ^2ATYIYPc-NH2] ({CH2CO}-[dY]LHFYTS[X1]ATYIYP[dC]-NH2; thioether N-15) | 490 nM | 23 10^-3 s^-1 | 48000 M⁻¹ s⁻¹ | 7930 nM |  |  |  |  |  | 96%
CC(C)C[C@@H]1NC(=O)[C@H](CC(N)=O)NC(=O)[C@H](CC(C)C)NC(=O)[C@H]2C[C@H](C2)NC(=O)[C@H](C)NC(=O)[C@H](Cc2ccccc2)NC(=O)[C@@H](Cc2ccc(O)cc2)NC(=O)CSC[C@H](C(N)=O)NC(=O)CNC(=O)[C@@H]2CCCN2C(=O)[C@H](CCCNC(=N)N)NC(=O)[C@H](Cc2ccc(O)cc2)NC(=O)CNC1=O [GM4H3A] ({CH2CO}-[dY]FA[Acbc(cis-1,3)]LNLGYRPG[dC]-NH2; thioether N-13) | > 10000 nM |  |  | > 25000 nM |  |  |  |  | no inhibition | 
